US11542240B2, “STK19 inhibitors for treatment of cancer” (TRUSTEES OF BOSTON UNIVERSITY, priority 2018, dated 2023)
Like-named read-outs stand apart in the source and are kept apart here.

Tests used:
Experiment in all cases: biochemical
Assay type in all cases: binding
[1] = molecular target: panel of 468 diverse kinases (Homo sapiens, UniProt O14757); conditions: CHEK1; 1000 nM; read-out: Percent Control
[2] = molecular target: panel of 468 diverse kinases (Homo sapiens, UniProt O43293); conditions: DAPK3; 1000 nM; read-out: Percent Control
[3] = molecular target: panel of 468 diverse kinases (Homo sapiens, UniProt O60674); conditions: JAK2(JH1domain-catalytic); 1000 nM; read-out: Percent Control
[4] = molecular target: panel of 468 diverse kinases (Homo sapiens, UniProt O95819); conditions: MAP4K4; 1000 nM; read-out: Percent Control
[5] = molecular target: panel of 468 diverse kinases (Homo sapiens, UniProt P00519, Y253F); conditions: ABL1(Y253F)-phosphorylated; 1000 nM; read-out: Percent Control
[6] = molecular target: panel of 468 diverse kinases (Homo sapiens, UniProt P06241); conditions: FYN; 1000 nM; read-out: Percent Control
[7] = molecular target: panel of 468 diverse kinases (Homo sapiens, UniProt P07949); conditions: RET; 1000 nM; read-out: Percent Control
[8] = molecular target: panel of 468 diverse kinases (Homo sapiens, UniProt P08069); conditions: IGF1R; 1000 nM; read-out: Percent Control
[9] = molecular target: panel of 468 diverse kinases (Homo sapiens, UniProt P08631); conditions: HCK; 1000 nM; read-out: Percent Control
[10] = molecular target: panel of 468 diverse kinases (Homo sapiens, UniProt P10721); conditions: 1000 nM, read-out: Percent Control
[11] = molecular target: panel of 468 diverse kinases (Homo sapiens, UniProt P15056); conditions: BRAF; 1000 nM; read-out: Percent Control
[12] = molecular target: panel of 468 diverse kinases (Homo sapiens, UniProt P23458); conditions: 1000 nM, read-out: Percent Control
[13] = molecular target: panel of 468 diverse kinases (Homo sapiens, UniProt P27037); conditions: ACVR2A; 1000 nM; read-out: Percent Control
[14] = molecular target: panel of 468 diverse kinases (Homo sapiens, UniProt P30530); conditions: AXL; 1000 nM; read-out: Percent Control
[15] = molecular target: panel of 468 diverse kinases (Homo sapiens, UniProt P31751); conditions: AKT2; 1000 nM; read-out: Percent Control
[16] = molecular target: panel of 468 diverse kinases (Homo sapiens, UniProt P35968); conditions: VEGFR2; 1000 nM; read-out: Percent Control
[17] = molecular target: panel of 468 diverse kinases (Homo sapiens, UniProt P43403); conditions: ZAP70; 1000 nM; read-out: Percent Control
[18] = molecular target: panel of 468 diverse kinases (Homo sapiens, UniProt P45985); conditions: MEK4; 1000 nM; read-out: Percent Control
[19] = molecular target: panel of 468 diverse kinases (Homo sapiens, UniProt P48730); conditions: CSNK1D; 1000 nM; read-out: Percent Control
[20] = molecular target: panel of 468 diverse kinases (Homo sapiens, UniProt P51617); conditions: IRAK1; 1000 nM; read-out: Percent Control
[21] = molecular target: panel of 468 diverse kinases (Homo sapiens, UniProt P54646); conditions: AMPK-alpha2; 1000 nM; read-out: Percent Control
[22] = molecular target: panel of 468 diverse kinases (Homo sapiens, UniProt Q00535); conditions: CDK5; 1000 nM; read-out: Percent Control
[23] = molecular target: panel of 468 diverse kinases (Homo sapiens, UniProt Q09013); conditions: DMPK; 1000 nM; read-out: Percent Control
[24] = molecular target: panel of 468 diverse kinases (Homo sapiens, UniProt Q13237); conditions: PRKG2; 1000 nM; read-out: Percent Control
[25] = molecular target: panel of 468 diverse kinases (Homo sapiens, UniProt Q13882); conditions: BRK; 1000 nM; read-out: Percent Control
[26] = molecular target: panel of 468 diverse kinases (Homo sapiens, UniProt Q13976); conditions: PRKG1; 1000 nM; read-out: Percent Control
[27] = molecular target: panel of 468 diverse kinases (Homo sapiens, UniProt Q14012); conditions: CAMK1; 1000 nM; read-out: Percent Control
[28] = molecular target: panel of 468 diverse kinases (Homo sapiens, UniProt Q6ZN16); conditions: MAP3K15; 1000 nM; read-out: Percent Control
[29] = molecular target: panel of 468 diverse kinases (Homo sapiens, UniProt Q7KZI7); conditions: MARK2; 1000 nM; read-out: Percent Control
[30] = molecular target: panel of 468 diverse kinases (Homo sapiens, UniProt Q86Z02); conditions: HIPK1; 1000 nM; read-out: Percent Control
[31] = molecular target: panel of 468 diverse kinases (Homo sapiens, UniProt Q9Y243); conditions: AKT3; 1000 nM; read-out: Percent Control

panel of 468 diverse kinases (Homo sapiens, UniProt P10721), sequence (P10721 26-976 limits assumed): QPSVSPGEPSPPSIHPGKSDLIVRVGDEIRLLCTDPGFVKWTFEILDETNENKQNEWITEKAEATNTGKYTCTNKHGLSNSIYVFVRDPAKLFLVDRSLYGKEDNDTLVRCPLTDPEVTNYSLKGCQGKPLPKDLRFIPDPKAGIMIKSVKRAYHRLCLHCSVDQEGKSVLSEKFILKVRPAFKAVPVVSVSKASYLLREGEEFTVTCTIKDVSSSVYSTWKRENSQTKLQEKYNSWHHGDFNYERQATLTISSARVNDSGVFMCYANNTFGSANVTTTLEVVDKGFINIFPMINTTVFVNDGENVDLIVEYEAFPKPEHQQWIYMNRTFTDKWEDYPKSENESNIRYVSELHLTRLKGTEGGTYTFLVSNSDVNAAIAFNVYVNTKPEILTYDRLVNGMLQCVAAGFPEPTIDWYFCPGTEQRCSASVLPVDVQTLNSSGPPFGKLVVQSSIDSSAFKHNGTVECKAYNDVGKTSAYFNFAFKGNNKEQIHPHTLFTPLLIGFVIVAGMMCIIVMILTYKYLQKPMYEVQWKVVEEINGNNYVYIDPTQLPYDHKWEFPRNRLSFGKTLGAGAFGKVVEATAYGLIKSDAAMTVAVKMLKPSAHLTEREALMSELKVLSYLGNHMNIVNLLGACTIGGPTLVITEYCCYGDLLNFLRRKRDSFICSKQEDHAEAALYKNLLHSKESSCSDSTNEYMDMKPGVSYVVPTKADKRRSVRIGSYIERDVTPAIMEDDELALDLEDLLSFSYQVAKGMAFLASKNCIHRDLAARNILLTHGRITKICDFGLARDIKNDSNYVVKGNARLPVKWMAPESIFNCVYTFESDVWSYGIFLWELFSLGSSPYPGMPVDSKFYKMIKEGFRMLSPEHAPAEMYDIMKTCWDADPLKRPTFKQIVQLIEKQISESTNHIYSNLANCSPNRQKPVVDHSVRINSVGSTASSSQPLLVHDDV
panel of 468 diverse kinases (Homo sapiens, UniProt P15056), sequence (P15056 2-766 limits assumed): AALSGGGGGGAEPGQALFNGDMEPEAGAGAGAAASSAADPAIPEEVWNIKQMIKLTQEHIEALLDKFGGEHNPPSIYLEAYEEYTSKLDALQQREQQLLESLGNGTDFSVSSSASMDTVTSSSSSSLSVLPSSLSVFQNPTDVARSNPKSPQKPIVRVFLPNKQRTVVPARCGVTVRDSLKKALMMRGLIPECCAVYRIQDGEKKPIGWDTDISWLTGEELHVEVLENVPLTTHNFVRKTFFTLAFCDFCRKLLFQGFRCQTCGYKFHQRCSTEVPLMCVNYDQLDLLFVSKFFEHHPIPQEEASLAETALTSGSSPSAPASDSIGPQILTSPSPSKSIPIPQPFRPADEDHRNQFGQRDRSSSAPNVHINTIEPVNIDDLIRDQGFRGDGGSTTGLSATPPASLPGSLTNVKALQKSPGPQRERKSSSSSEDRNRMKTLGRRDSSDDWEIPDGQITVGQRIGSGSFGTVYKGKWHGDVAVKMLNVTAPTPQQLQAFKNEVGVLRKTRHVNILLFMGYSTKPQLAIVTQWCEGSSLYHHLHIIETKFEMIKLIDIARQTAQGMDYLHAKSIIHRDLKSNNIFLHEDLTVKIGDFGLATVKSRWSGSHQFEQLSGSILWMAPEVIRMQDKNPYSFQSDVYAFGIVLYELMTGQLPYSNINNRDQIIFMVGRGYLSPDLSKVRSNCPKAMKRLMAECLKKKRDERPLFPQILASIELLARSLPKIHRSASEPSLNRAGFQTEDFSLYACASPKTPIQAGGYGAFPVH
panel of 468 diverse kinases (Homo sapiens, UniProt P35968), sequence (P35968 20-1356 limits assumed): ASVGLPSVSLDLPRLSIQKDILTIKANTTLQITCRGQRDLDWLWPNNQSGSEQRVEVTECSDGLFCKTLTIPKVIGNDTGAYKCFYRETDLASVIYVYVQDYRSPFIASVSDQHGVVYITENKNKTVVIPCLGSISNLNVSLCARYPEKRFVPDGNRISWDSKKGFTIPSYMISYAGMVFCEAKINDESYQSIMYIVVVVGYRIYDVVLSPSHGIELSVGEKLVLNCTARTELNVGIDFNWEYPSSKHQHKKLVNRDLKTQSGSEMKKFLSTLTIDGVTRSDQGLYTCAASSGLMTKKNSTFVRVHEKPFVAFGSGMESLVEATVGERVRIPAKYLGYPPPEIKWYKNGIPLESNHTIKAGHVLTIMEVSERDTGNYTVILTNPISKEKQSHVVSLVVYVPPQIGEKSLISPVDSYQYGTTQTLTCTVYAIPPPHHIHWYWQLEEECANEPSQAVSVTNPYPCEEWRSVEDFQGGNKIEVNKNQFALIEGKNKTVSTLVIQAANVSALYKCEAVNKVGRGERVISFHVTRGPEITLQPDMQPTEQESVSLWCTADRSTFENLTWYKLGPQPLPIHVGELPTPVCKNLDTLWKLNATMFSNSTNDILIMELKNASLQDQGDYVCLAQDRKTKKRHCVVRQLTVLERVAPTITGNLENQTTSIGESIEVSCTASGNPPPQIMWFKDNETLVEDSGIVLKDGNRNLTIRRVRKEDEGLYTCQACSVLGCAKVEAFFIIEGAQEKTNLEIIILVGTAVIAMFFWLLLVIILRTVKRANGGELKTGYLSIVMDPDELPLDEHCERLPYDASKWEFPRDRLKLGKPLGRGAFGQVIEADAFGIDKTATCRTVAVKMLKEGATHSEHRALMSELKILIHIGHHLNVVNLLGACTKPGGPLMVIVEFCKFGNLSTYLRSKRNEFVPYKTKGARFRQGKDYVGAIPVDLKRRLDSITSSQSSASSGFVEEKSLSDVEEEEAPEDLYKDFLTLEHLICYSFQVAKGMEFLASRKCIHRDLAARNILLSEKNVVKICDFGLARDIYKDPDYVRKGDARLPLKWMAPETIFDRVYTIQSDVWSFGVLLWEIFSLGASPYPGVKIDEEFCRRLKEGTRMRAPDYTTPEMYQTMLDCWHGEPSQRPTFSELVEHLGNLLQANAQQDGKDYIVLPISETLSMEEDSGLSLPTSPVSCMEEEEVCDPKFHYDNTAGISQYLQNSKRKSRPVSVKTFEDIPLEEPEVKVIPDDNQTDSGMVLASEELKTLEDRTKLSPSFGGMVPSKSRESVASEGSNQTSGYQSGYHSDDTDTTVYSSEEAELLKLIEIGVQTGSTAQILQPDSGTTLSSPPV
panel of 468 diverse kinases (Homo sapiens, UniProt P45985), sequence (P45985 2-399 limits assumed): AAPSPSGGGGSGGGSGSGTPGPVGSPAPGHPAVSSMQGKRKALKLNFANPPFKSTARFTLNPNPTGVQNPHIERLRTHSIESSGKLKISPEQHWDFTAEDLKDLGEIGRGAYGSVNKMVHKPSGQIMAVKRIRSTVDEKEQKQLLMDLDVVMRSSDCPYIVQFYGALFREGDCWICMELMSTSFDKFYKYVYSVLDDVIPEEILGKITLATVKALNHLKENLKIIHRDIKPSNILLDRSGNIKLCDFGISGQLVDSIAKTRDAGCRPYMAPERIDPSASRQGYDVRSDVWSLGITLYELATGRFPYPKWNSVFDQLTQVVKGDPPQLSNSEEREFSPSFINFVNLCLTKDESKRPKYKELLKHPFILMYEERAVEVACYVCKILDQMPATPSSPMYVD
panel of 468 diverse kinases (Homo sapiens, UniProt O95819), sequence (O95819 2-1239 limits assumed): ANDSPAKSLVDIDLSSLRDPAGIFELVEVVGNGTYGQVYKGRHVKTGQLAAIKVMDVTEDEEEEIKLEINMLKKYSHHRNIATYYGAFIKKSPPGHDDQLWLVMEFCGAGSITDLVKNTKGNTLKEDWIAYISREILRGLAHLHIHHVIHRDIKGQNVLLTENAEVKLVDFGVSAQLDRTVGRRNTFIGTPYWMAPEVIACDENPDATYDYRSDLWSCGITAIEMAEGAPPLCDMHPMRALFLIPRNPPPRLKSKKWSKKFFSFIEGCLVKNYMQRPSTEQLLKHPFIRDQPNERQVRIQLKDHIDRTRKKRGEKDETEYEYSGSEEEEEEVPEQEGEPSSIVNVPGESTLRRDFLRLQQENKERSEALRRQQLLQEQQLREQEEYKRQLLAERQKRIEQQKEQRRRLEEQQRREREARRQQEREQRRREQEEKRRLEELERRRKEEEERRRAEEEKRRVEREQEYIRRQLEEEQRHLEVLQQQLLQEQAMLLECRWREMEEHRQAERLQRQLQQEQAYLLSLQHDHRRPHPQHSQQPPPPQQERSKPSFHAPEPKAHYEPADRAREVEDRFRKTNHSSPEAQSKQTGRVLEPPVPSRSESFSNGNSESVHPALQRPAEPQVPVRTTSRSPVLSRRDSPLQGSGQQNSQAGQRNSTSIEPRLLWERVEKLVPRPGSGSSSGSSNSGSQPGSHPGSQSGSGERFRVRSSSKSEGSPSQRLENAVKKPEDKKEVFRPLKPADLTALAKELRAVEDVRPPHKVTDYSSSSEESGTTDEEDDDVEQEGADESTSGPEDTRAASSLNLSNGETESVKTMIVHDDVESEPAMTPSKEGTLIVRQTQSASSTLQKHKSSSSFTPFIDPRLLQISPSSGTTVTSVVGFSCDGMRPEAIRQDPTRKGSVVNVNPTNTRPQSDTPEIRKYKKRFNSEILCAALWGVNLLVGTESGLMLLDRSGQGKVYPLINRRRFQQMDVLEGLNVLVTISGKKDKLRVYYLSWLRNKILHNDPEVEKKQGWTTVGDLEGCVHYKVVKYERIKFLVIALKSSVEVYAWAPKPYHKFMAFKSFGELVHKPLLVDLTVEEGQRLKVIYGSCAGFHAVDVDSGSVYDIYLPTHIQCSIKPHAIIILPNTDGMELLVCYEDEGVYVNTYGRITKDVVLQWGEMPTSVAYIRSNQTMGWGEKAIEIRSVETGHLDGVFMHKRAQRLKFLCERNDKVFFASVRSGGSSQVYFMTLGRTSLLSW

## COc1cc2nc(NC3CC3)nc(NC3CCN(C(C)C)CC3)c2cc1OC [Formula IV]
[1]
  remaining activity at 1 µM: 93%
[2]
  remaining activity at 1 µM: 89%
[3]
  remaining activity at 1 µM: 74%
[4]
  remaining activity at 1 µM: 100%
[5]
  remaining activity at 1 µM: 100%
[6]
  remaining activity at 1 µM: 100%
[7]
  remaining activity at 1 µM: 100%
[8]
  remaining activity at 1 µM: 97%
[9]
  remaining activity at 1 µM: 95%
[10]; KIT-autoinhibited
  remaining activity at 1 µM: 57%
[10]; KIT
  remaining activity at 1 µM: 95%
[11]
  remaining activity at 1 µM: 88%
[12]; JAK1(JH1domain-catalytic)
  remaining activity at 1 µM: 96%
[12]; JAK1(JH2domain-pseudokinase)
  remaining activity at 1 µM: 51%
[13]
  remaining activity at 1 µM: 100%
[14]
  remaining activity at 1 µM: 94%
[15]
  remaining activity at 1 µM: 89%
[16]
  remaining activity at 1 µM: 45%
[17]
  remaining activity at 1 µM: 91%
[18]
  remaining activity at 1 µM: 84%
[19]
  remaining activity at 1 µM: 98%
[20]
  remaining activity at 1 µM: 80%
[21]
  remaining activity at 1 µM: 93%
[22]
  remaining activity at 1 µM: 93%
[23]
  remaining activity at 1 µM: 99%
[24]
  remaining activity at 1 µM: 88%
[25]
  remaining activity at 1 µM: 100%
[26]
  remaining activity at 1 µM: 64%
[27]
  remaining activity at 1 µM: 91%
[28]
  remaining activity at 1 µM: 52%
[29]
  remaining activity at 1 µM: 100%
[30]
  remaining activity at 1 µM: 100%
[31]
  remaining activity at 1 µM: 91%
